Data as given in publication PMC4945539 (Mycobiology, 2016).

Target: neuraminidase
Assay: Inhibition kinetics
Assay type: biochemical, influenza virus
Settings: decrease in Vmax while Km remained stable

CC1=CC(=O)C2(O1)C(c1cc3oc(=O)c4cc(O)c(O)cc4c3c(=O)o1)=Cc1cc(O)c(O)cc12 (centres unmarked) [compound 1, phelligridin E]
Kinetic mode: noncompetitive

O=C1C=C(/C=C/c2ccc(O)c(O)c2)OC12C(c1cc3oc(=O)c4cc(O)c(O)cc4c3c(=O)o1)=Cc1cc(O)c(O)cc12 (centres unmarked) [compound 2, phelligridin G]
Kinetic mode: noncompetitive
